Test results: the supplement of paper PMC10307832

Legend:
Test in all cases: relative viability (nuclei count vs DMSO), 5 days (fraction); higher = more cells survive
201T = system: 201T
In short: (§1)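 Medians of duplicate plates are given as relative viability. That measure is the nuclei count in treated wells divided by the count in vehicle wells. Counts were taken on 4× images of lung cancer cell lines in 1536-well plates, 5 days after pin-tool dosing the day after seeding with one drug alone or a fixed anchor-drug dose plus five library-drug doses (not always all listed) in √10 steps.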

COR-L 105 = system: COR-L 105
In short: as §1

ChaGo-K-1 = system: ChaGo-K-1
In short: as §1

EPLC-272H = system: EPLC-272H
In short: as §1

H3255 = system: H3255
In short: as §1

HCC-78 = system: HCC-78
In short: as §1

HCC-827 = system: HCC-827
In short: as §1

LC-2-ad = system: LC-2-ad
In short: as §1

LCLC-97TM1 = system: LCLC-97TM1
In short: as §1

NCI-H1666 = system: NCI-H1666
In short: as §1

NCI-H1915 = system: NCI-H1915
In short: as §1

NCI-H2087 = system: NCI-H2087
In short: as §1

NCI-H2126 = system: NCI-H2126
In short: as §1

NCI-H2347 = system: NCI-H2347
In short: as §1

NCI-H23 = system: NCI-H23
In short: as §1

NCI-H2405 = system: NCI-H2405
In short: as §1

NCI-H520 = system: NCI-H520
In short: as §1

NCI-H647 = system: NCI-H647
In short: as §1

NCI-H650 = system: NCI-H650
In short: as §1

NCI-H661 = system: NCI-H661
In short: as §1

PC-14 = system: PC-14
In short: as §1

RERF-LC-KJ = system: RERF-LC-KJ
In short: as §1

`COc1nc(C)cnc1NS(=O)(=O)c1cccnc1-c1ccc(-c2nnco2)cc1` [Zibotentan] + O=C(CCCCCCC(=O)Nc1ccccc1)NO [Vorinostat] (partner 1 µM) was tested, and the relative viability (201T; first compound 0.08 µM) was 0.96, the relative viability (201T; first compound 0.253 µM) was 0.972 and the relative viability (201T; first compound 0.8 µM) was 0.952. The relative viability (201T; first compound 2.53 µM) was 1, the relative viability (COR-L 105; first compound 0.08 µM) was 0.904 and the relative viability (COR-L 105; first compound 0.253 µM) was 0.756. The relative viability (COR-L 105; first compound 0.8 µM) was 0.781, the relative viability (COR-L 105; first compound 2.53 µM) was 0.99 and the relative viability (ChaGo-K-1; first compound 0.08 µM) was 0.802. It also gave a relative viability (ChaGo-K-1; first compound 0.253 µM) of 0.764, a relative viability (ChaGo-K-1; first compound 0.8 µM) of 0.713 and a relative viability (ChaGo-K-1; first compound 2.53 µM) of 0.815. It also gave a relative viability (EPLC-272H; first compound 0.253 µM) of 0.506, a relative viability (EPLC-272H; first compound 0.8 µM) of 0.667 and a relative viability (EPLC-272H; first compound 2.53 µM) of 0.501. The relative viability (H3255; first compound 0.08 µM) was 0.926, the relative viability (H3255; first compound 0.253 µM) was 0.785 and the relative viability (H3255; first compound 0.8 µM) was 0.877. The relative viability (H3255; first compound 2.53 µM) was 0.778, the relative viability (HCC-78; first compound 0.08 µM) was 0.482 and the relative viability (HCC-78; first compound 0.253 µM) was 0.347. For the same compound, the relative viability (HCC-78; first compound 0.8 µM) was 0.382, the relative viability (HCC-78; first compound 2.53 µM) was 0.48 and the relative viability (HCC-827; first compound 0.08 µM) was 0.958. It also gave a relative viability (HCC-827; first compound 0.253 µM) of 0.771, a relative viability (HCC-827; first compound 0.8 µM) of 0.811 and a relative viability (HCC-827; first compound 2.53 µM) of 0.785. It also gave a relative viability (LC-2-ad; first compound 0.08 µM) of 0.751, a relative viability (LC-2-ad; first compound 0.253 µM) of 0.723 and a relative viability (LC-2-ad; first compound 0.8 µM) of 0.739. The relative viability (LC-2-ad; first compound 2.53 µM) was 0.731, the relative viability (LCLC-97TM1; first compound 0.08 µM) was 0.822 and the relative viability (LCLC-97TM1; first compound 0.253 µM) was 0.831. It also gave a relative viability (LCLC-97TM1; first compound 0.8 µM) of 0.697, a relative viability (LCLC-97TM1; first compound 2.53 µM) of 0.755 and a relative viability (NCI-H1666; first compound 0.08 µM) of 1.17. For the same compound, the relative viability (NCI-H1666; first compound 0.253 µM) was 0.95, the relative viability (NCI-H1666; first compound 0.8 µM) was 1.04 and the relative viability (NCI-H1666; first compound 2.53 µM) was 1.1. It also gave a relative viability (NCI-H1915; first compound 0.08 µM) of 0.679, a relative viability (NCI-H1915; first compound 0.253 µM) of 0.53 and a relative viability (NCI-H1915; first compound 0.8 µM) of 0.548. For the same compound, the relative viability (NCI-H1915; first compound 2.53 µM) was 0.572, the relative viability (NCI-H2087; first compound 0.08 µM) was 0.719 and the relative viability (NCI-H2087; first compound 0.253 µM) was 0.679. The relative viability (NCI-H2087; first compound 0.8 µM) was 0.752, the relative viability (NCI-H2087; first compound 2.53 µM) was 0.732 and the relative viability (NCI-H2126; first compound 0.08 µM) was 0.844. It also gave a relative viability (NCI-H2126; first compound 0.253 µM) of 0.765, a relative viability (NCI-H2126; first compound 0.8 µM) of 0.651 and a relative viability (NCI-H2126; first compound 2.53 µM) of 0.831. For the same compound, the relative viability (NCI-H2347; first compound 0.08 µM) was 0.622, the relative viability (NCI-H2347; first compound 0.253 µM) was 0.566 and the relative viability (NCI-H2347; first compound 0.8 µM) was 0.658. The relative viability (NCI-H2347; first compound 2.53 µM) was 0.744, the relative viability (NCI-H23; first compound 0.08 µM) was 0.642 and the relative viability (NCI-H23; first compound 0.253 µM) was 0.497. The relative viability (NCI-H23; first compound 0.8 µM) was 0.452, the relative viability (NCI-H23; first compound 2.53 µM) was 0.707 and the relative viability (NCI-H2405; first compound 0.08 µM) was 1.25. For the same compound, the relative viability (NCI-H2405; first compound 0.253 µM) was 0.829, the relative viability (NCI-H2405; first compound 0.8 µM) was 0.957 and the relative viability (NCI-H2405; first compound 2.53 µM) was 1.12. For the same compound, the relative viability (NCI-H520; first compound 0.08 µM) was 0.778, the relative viability (NCI-H520; first compound 0.253 µM) was 0.799 and the relative viability (NCI-H520; first compound 0.8 µM) was 0.794. For the same compound, the relative viability (NCI-H520; first compound 2.53 µM) was 0.711, the relative viability (NCI-H647; first compound 0.08 µM) was 0.649 and the relative viability (NCI-H647; first compound 0.253 µM) was 0.381. The relative viability (NCI-H647; first compound 0.8 µM) was 0.718, the relative viability (NCI-H647; first compound 2.53 µM) was 0.698 and the relative viability (NCI-H650; first compound 0.08 µM) was 0.53. It also gave a relative viability (NCI-H650; first compound 0.253 µM) of 0.403, a relative viability (NCI-H650; first compound 0.8 µM) of 0.625 and a relative viability (NCI-H650; first compound 2.53 µM) of 0.536. It also gave a relative viability (NCI-H661; first compound 0.08 µM) of 0.823, a relative viability (NCI-H661; first compound 0.253 µM) of 0.766 and a relative viability (NCI-H661; first compound 0.8 µM) of 0.827. The relative viability (NCI-H661; first compound 2.53 µM) was 0.844, the relative viability (PC-14; first compound 0.08 µM) was 0.937 and the relative viability (PC-14; first compound 0.253 µM) was 0.421. It also gave a relative viability (PC-14; first compound 0.8 µM) of 0.81, a relative viability (PC-14; first compound 2.53 µM) of 0.77 and a relative viability (RERF-LC-KJ; first compound 0.08 µM) of 0.847. It also gave a relative viability (RERF-LC-KJ; first compound 0.253 µM) of 0.541, a relative viability (RERF-LC-KJ; first compound 0.8 µM) of 0.74 and a relative viability (RERF-LC-KJ; first compound 2.53 µM) of 0.679.
